Assay results: US8304529B2, “Dinucleotide MRNA cap analogs” (Life Technologies Corporation, priority 2006, dated 2012)

Legend:
[1] = system: HeLa cells; assay: Luciferase protein expression after transfection of capped luciferase RNA into HeLa cells; type: cell-based; conditions: for protein expression compared with mCAP: capped luciferase RNAs with poly(A) tail, different time points after transfection, higher than mCAP
Method: Structures were confirmed by ^1H NMR and ^31P NMR. Transcripts produced with T7 RNA polymerases using “anti-reverse” cap analogs (ARCAs) were of the predicted length and indistinguishable in size and homogeneity from those produced with m^7GpppG. Transfection assays were performed by using standard cap analog-capped and ARCA-capped luciferase in in vitro transcribed RNA with HeLa cells.

[2] = system: phage RNA polymerase such as T7, T3 or SP6; conditions: cited from earlier work

Compound | protein expression compared with mCAP [1] | attachment of cap to RNA in the reverse orientation ([2]; NTPs and cap RNA present in comparable concentrations) | capped RNA in transcription product ([2]; m7GpppG to GTP 4:1, mMESSAGE mMACHINE kit, rest 20% uncapped) [%] | translation of capped transcripts in transfected cells ([1]; compared with mCAP, double methylated and ARCA capped luciferase RNAs)
CO[C@H]1[C@@H](O)[C@H](n2c[n+](C)c3c(=O)[nH]c(N)nc32)O[C@@H]1COP(=O)(O)OP(=O)(O)OP(=O)(O)OC[C@H]1O[C@@H](n2cnc3c(=O)[nH]c(N)nc32)[C@H](O)[C@@H]1O [ARCA, m2^7,3′OG[5′]ppp[5′]G] | 3 fold |  |  | 
C[n+]1cn([C@@H]2O[C@H](COP(=O)(O)OP(=O)(O)OP(=O)(O)OC[C@H]3O[C@@H](n4c[n+](C)c5c(=O)[nH]c(N)nc54)[C@H](O)[C@@H]3O)[C@@H](O)[C@H]2O)c2nc(N)[nH]c(=O)c21 [double methylated cap, m^7 (5′)Gppp(5′)m^7G] | one fold higher |  |  | 
Cn1c[n+]([C@@H]2O[C@H](COP(=O)(O)OP(=O)(O)OP(=O)(O)OC[C@H]3O[C@@H](n4cnc5c(=O)[nH]c(N)nc54)[C@H](O)[C@@H]3O)[C@@H](O)[C@H]2O)c2nc(N)[nH]c(=O)c21 [mCAP, m^7G(5′)ppp(5′)G] |  | around 50% | 80 | 
COC1C(COP(=O)([O-])OP(=O)(O)OP(=O)([O-])OCC2OC(n3c[n+](C)c4c(=O)[nH]c(N)nc43)C(O)C2O)OC(n2c[n+](C)c3c(=O)[nH]c(N)nc32)C1O (stereo not drawn) [triple methylated cap, m2^7,3′OG[5′]ppp[5′]m^7G] | 4 fold |  |  | more highly translated
